Experimental findings from PubChem BioAssay (NCI) are described below.

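Assay format: 96-well plates, 48-hour exposure. GI50 marks 50% less growth. TGI denotes the concentration required for complete inhibition of growth.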

Among the test systems are SR leukemia; HL-60(TB) leukemia; RPMI-8226 leukemia; IGROV1 ovarian; SK-MEL-2 melanoma; SN12C renal; ACHN renal; PC-3 prostate; NCI-H23 lung; MDA-MB-435.
Assay in all cases: NCI anticancer screen, dose series, 48 h

As to `COc1cc2c(c(OC)c1)C1c3ccccc3NC(=O)N1CC2` (configuration not stated), the GI50 was 2.77 µM in the experiment with SR leukemia; 2.12 µM in the experiment with HL-60(TB) leukemia; 5.39 µM in the experiment on RPMI-8226 leukemia; 7.71 µM in the experiment on IGROV1 ovarian; 2.85 µM in the experiment on SK-MEL-2 melanoma; 7.27 µM in the experiment with SN12C renal. In addition, the values for the GI50 in the experiment on ACHN renal, in the experiment on PC-3 prostate and in the experiment on NCI-H23 lung were 5.48 µM, 3.89 µM and 3.69 µM, respectively. Besides, the TGI is above 100 µM with SR leukemia; 5.56 µM with HL-60(TB) leukemia; 68.2 µM in the experiment with RPMI-8226 leukemia; above 100 µM in the experiment with IGROV1 ovarian; 91.4 µM in the experiment with SK-MEL-2 melanoma; above 100 µM with SN12C renal. Besides, the TGI in the experiment with ACHN renal, with PC-3 prostate and in the experiment with NCI-H23 lung was above 100 µM each time.
For `COc1ccc(-c2csc(N(C(=O)N3CCN(c4cc5c(cc4F)c(=O)c(C(=O)O)cn5C4CC4)CC3)c3ccccc3)n2)cc1`, the GI50 in the experiment with SR leukemia is 2.78 µM; with HL-60(TB) leukemia, 2.34 µM; with MDA-MB-435, 3.51 µM; in the experiment on IGROV1 ovarian, 1.21 µM; in the experiment with SK-MEL-2 melanoma, 2.2 µM; with SN12C renal it was 2.95 µM. Also, the GI50 in the experiment on ACHN renal was 1.85 µM; with PC-3 prostate it was 2.77 µM; in the experiment on NCI-H23 lung it was 2.96 µM. Moreover, the TGI with SR leukemia was above 100 µM; in the experiment with HL-60(TB) leukemia, 5.94 µM; in the experiment with MDA-MB-435, above 100 µM; with IGROV1 ovarian, above 100 µM; in the experiment on SK-MEL-2 melanoma, 5.22 µM; in the experiment on SN12C renal, above 100 µM. The TGI in the experiment on ACHN renal was 5.09 µM; in the experiment on PC-3 prostate it was above 100 µM; with NCI-H23 lung it was 18.4 µM.
For `Nc1ccccc1C#C/C=C\C#Cc1cccs1`, the GI50 with HL-60(TB) leukemia is 0.696 µM; in the experiment on RPMI-8226 leukemia, 1.25 µM; with MDA-MB-435, 2.81 µM; with IGROV1 ovarian, 6.36 µM; in the experiment with SK-MEL-2 melanoma, 16.2 µM; in the experiment on SN12C renal, 4.62 µM. The results for the GI50 in the experiment on ACHN renal, with PC-3 prostate and with NCI-H23 lung were 15.9 µM, 4.48 µM and 14.3 µM, respectively. For the same compound, the TGI was 12.3 µM with HL-60(TB) leukemia; above 35.7 µM with RPMI-8226 leukemia; 12.2 µM in the experiment on MDA-MB-435; above 39.6 µM with IGROV1 ovarian; 43.3 µM with SK-MEL-2 melanoma; 16.7 µM with SN12C renal. For the same compound, the TGI in the experiment on ACHN renal was determined as 58.3 µM; in the experiment on PC-3 prostate, 27.3 µM; in the experiment with NCI-H23 lung it was 41.2 µM.
Turning to `CN(C)CCNc1c2c(c(NCCN(C)C)c3[nH]ccc13)C(=O)c1ccccc1C2=O`, the GI50 is 1.39 µM in the experiment with HL-60(TB) leukemia; 0.737 µM in the experiment with RPMI-8226 leukemia; 1.54 µM in the experiment with MDA-MB-435; 1.19 µM in the experiment on IGROV1 ovarian; 0.519 µM in the experiment on SN12C renal; 0.476 µM in the experiment with ACHN renal. For the same compound, the GI50 with PC-3 prostate is 0.609 µM; with NCI-H23 lung, 1.82 µM. Further, the TGI was 2.79 µM in the experiment on RPMI-8226 leukemia; 5.14 µM in the experiment on MDA-MB-435; above 100 µM in the experiment with IGROV1 ovarian; 2.61 µM with SN12C renal; 5.56 µM with ACHN renal; 11.1 µM in the experiment with PC-3 prostate.
Consider `O=C1CC(c2ccc(O)cc2)C2(O1)C(=O)OC(C(O)CO)C2O` (configuration not stated), for which the TGI with HL-60(TB) leukemia, in the experiment with RPMI-8226 leukemia, in the experiment on MDA-MB-435, with IGROV1 ovarian, with SK-MEL-2 melanoma and in the experiment with SN12C renal was above 100 µM each time. For the same compound, the TGI in the experiment with ACHN renal, with PC-3 prostate and with NCI-H23 lung was above 100 µM in each case.
Regarding `CN(C)CCCNC(CC#N)CCC#N` (configuration not stated), the TGI in the experiment on HL-60(TB) leukemia, in the experiment with MDA-MB-435, in the experiment on IGROV1 ovarian, in the experiment on SK-MEL-2 melanoma, with SN12C renal and in the experiment with ACHN renal was above 10 µM each time. Further, the TGI in the experiment on PC-3 prostate and in the experiment with NCI-H23 lung was above 10 µM in each case.
Regarding `NCCOCCOCCNc1nc(Cc2ccccc2)nc(NCCCN2CCCC2=O)n1`, the GI50 with SR leukemia, in the experiment with HL-60(TB) leukemia, in the experiment on RPMI-8226 leukemia, in the experiment on MDA-MB-435, in the experiment on IGROV1 ovarian and with SN12C renal was above 100 µM throughout. Further, the GI50 with ACHN renal, with PC-3 prostate and in the experiment on NCI-H23 lung was above 100 µM in each case. Moreover, the TGI in the experiment with SR leukemia, with HL-60(TB) leukemia, in the experiment on RPMI-8226 leukemia, with MDA-MB-435, with IGROV1 ovarian and with SN12C renal was above 100 µM in each case. Besides, the TGI in the experiment with ACHN renal, in the experiment with PC-3 prostate and in the experiment on NCI-H23 lung was above 100 µM in each case.
On to `COc1cc(/C=C/c2cc(O)c3cc(C(C)=O)c(=O)oc3c2)cc2c1O[C@]1(C)CC[C@@H](O)C(C)(C)[C@H]1C2`, for which the TGI in the experiment with SR leukemia was above 100 µM; with HL-60(TB) leukemia, 10.7 µM; in the experiment with MDA-MB-435 it was above 45.7 µM; in the experiment on IGROV1 ovarian, above 66.1 µM; with SK-MEL-2 melanoma, above 45.8 µM; in the experiment on SN12C renal it was above 68 µM. In addition, the TGI in the experiment on ACHN renal is above 74 µM; in the experiment on PC-3 prostate, above 36 µM; with NCI-H23 lung it was above 55 µM. The GI50 in the experiment on HL-60(TB) leukemia is 2.12 µM; in the experiment with MDA-MB-435, above 20.1 µM; in the experiment on IGROV1 ovarian, above 25.9 µM; in the experiment with SN12C renal, above 33 µM; in the experiment on ACHN renal, above 22.9 µM; in the experiment on NCI-H23 lung it was above 22.2 µM.
On to `N#Cc1c(N2CCCC2)[nH]c(=O)c(C(c2c(Cl)cccc2Cl)c2c(O)c(C#N)c(N3CCCC3)[nH]c2=O)c1O`, for which the GI50 was 2.54 µM in the experiment with RPMI-8226 leukemia; 9.6 µM with MDA-MB-435; 19 µM with IGROV1 ovarian; 16.6 µM in the experiment with SK-MEL-2 melanoma; 13.6 µM with SN12C renal; 16.8 µM in the experiment on ACHN renal. Also, the GI50 with PC-3 prostate is 14.5 µM; with NCI-H23 lung, 11.6 µM. Further, the TGI came out at 18.4 µM with RPMI-8226 leukemia; 25.2 µM in the experiment with MDA-MB-435; 56.5 µM in the experiment on IGROV1 ovarian; 45.4 µM in the experiment with SK-MEL-2 melanoma; 33.9 µM in the experiment on SN12C renal; 34.1 µM in the experiment with ACHN renal. Further, the results for the TGI with PC-3 prostate and in the experiment on NCI-H23 lung were 28.3 µM and 31 µM, respectively.
Consider `C[C@@H]1C[C@H]2CC[C@H](O2)[C@H](C)C(=O)O[C@@H](C)C[C@@H]2CC[C@@H](O2)[C@@H](C)C(=O)O[C@H](C)C[C@H]2CC[C@H](O2)[C@H](C)C(=O)O[C@@H](C)C[C@@H]2CC[C@@H](O2)[C@@H](C)C(=O)O1`, for which the TGI was above 42.8 µM in the experiment with SR leukemia; 0.536 µM with HL-60(TB) leukemia; above 49.3 µM with MDA-MB-435; 32.4 µM in the experiment with IGROV1 ovarian; 3.34 µM in the experiment with SK-MEL-2 melanoma; 18.9 µM in the experiment on SN12C renal. The TGI in the experiment with ACHN renal came out at 2.45 µM; in the experiment on PC-3 prostate, 2.46 µM.
